Read-outs that look alike come from different tables or passages of the source.
Legend:
[1] = test system: rhythmic bladder voiding contractions; test: Volume-induced rhythmic bladder voiding contractions in anaesthetized rats; type: in vivo, rat; details: Rattus norvegicus, intravenous; for ED (10 min disappearance of contractions): extrapolated dose inducing 10 min of disappearance of the contractions, anaesthetized rats, read-out: ED10 min; for ED50: extrapolated dose inducing a reduction of the number of contractions >30% in 50% of treated rats, read-out: ED50 (frequency)
Description: Female Sprague Dawley rats weighing 225-275 g (Crl: CDo BR, Charles River Italia) were used. The animals were housed with free access to food and water and were maintained on a forced 12 h alternating light-dark cycle at 22-24° C. for at least one week, except during the experiment. The activity on the rhythmic bladder voiding contractions was evaluated according to the method of Dray (J. Pharmacol. Methods, 13:157, 1985), with some modifications as in Guarneri (Pharmacol. Res., 27:173, 1993). Briefly, rats were anesthetized by subcutaneous injection of 1.25 g/kg (5 ml/kg) urethane, after which the urinary bladder was catheterized via the urethra using PE 50 polyethylene tubing filled with physiological saline. The catheter was tied in place with a ligature around the external urethral orifice and was connected with conventional pressure transducers (Statham P23 ID/P23 XL). […] The bladder was then filled via the recording catheter by incremental volumes of warm (37° C.) saline until reflex bladder voiding contractions occurred (usually 0.8-1.5 ml). For intravenous (i.v.) injection of bioactive compounds, PE 50 polyethylene tubing filled with physiological saline was inserted into the jugular vein. From the cystometrogram, the number of contractions recorded 15 min before (basal values) and after treatment, as well as the mean amplitude of these contractions (mean height of the peaks in mmHg) was evaluated.
Since most compounds produced an effect that was relatively rapid in onset and led to a complete cessation of bladder contractions, bioactivity was conveniently estimated by measuring the duration of bladder quiescence (i.e., the duration of time during which no contractions occurred). The number of animals tested showing a reduction in the number of contractions >30% of that observed in the basal period was also recorded.
Also computed in this manner were extrapolated doses which induced a reduction of the number of contractions of greater than 30% in 50% of treated rats (ED50, frequency) by the method of Bliss (Bliss C. I., Quart. J. Pharm. Pharmacol. 11, 192-216, 1938). After the suppressive effects of drug injection wore off, the height of the contractile peaks was compared with the height of the peaks previously recorded after the control intravenous administration of vehicle. The potency of the tested compounds (ED50 value: the extrapolated doses inducing a 30% reduction of amplitude of the contractions in 50% of treated rats) was evaluated on a quantal basis by the method of Bliss (Bliss C. I., Quart. J. Pharm. Pharmacol. 11, 192-216, 1938).

urinary bladder = test: Cystometric parameters (cystometrogram) in conscious rats; type: in vivo, rat; details: for BVC after treatment / MP after treatment: mean ± S.E.; for change in vivo at 0.3 mg/kg / change in vivo at 1 mg/kg: Rattus norvegicus, iv, 0.25 h, after vs before; for change in vivo at 0.3 mg/kg: i.v. 300 μg/kg; for change in vivo at 1 mg/kg: i.v. 1000 μg/kg
Description: Male Sprague Dawley rats (Crl: CDo BR) weighing 250-350 g were used. The animals were housed with free access to food and water and maintained on a forced 12 h alternating light-dark cycle at 22-24° C. for at least one week, except during performance of the experiment. To quantify urodynamic parameters in conscious rats, cystometrographic studies were performed using procedures previously described (Guarneri et al., Pharmacol. Res., 24:175, 1991). […] An approximately 10 mm long midline incision was made in the shaved and cleaned abdominal wall. The urinary bladder was gently freed from adhering tissues, emptied, and then cannulated, via an incision at the dome, with a polyethylene cannula (Portex PP30), which was permanently sutured with silk thread. The cannula was exteriorized through a subcutaneous tunnel in the retroscapular area, where it was connected with a plastic adapter to avoid the risk of removal by the animal. For intravenous (i.v.) injection of test compounds, a PE 50 polyethylene tubing filled with physiological saline was inserted into the jugular vein and exteriorized in the retroscapular area. The rats were utilized exclusively one day after implantation. On the day of the experiment, the rats were placed in Bollman's cages, after a stabilization period of 20 min, and the free tip of the bladder catheter was connected through a T-shaped tube to a pressure transducer (Bentley T 800/Marb P 82) and to a peristaltic pump (Gilson minipuls 2) for a continuous infusion, at the constant rate of 0.1 ml/min, of saline solution into the urinary bladder. The intraluminal pressure signal during infusion was continuously recorded on a polygraph (Battaglia Rangoni KO 380 with ADCl/T amplifier).
Two urodynamic parameters were evaluated: bladder volume capacity (BVC) and micturition pressure (MP). BVC (in ml) is defined as the minimum volume infused after which detrusor contraction (followed by micturition) occurs. MP (in mm Hg) is defined as the maximal intravesical pressure induced by the contraction of detrusor during micturition. Basal BVC and MP values were calculated as the means of the first two recorded cystometrograms. At this point in the assay, the infusion was interrupted and the test compounds were administered. Fifteen minutes after intravenous administration two additional cystometrograms were recorded in each animal and the mean values of the two cystometrographic parameters were calculated. The statistical significance of the differences in urodynamic parameter values was evaluated by Student's t test for paired data.

[2] = target: T1, human 5-HT1A serotonergic receptor (Homo sapiens, UniProt P08908); test: Radioreceptor binding, recombinant human 5-HT1A receptors ([3H]8-OH-DPAT, HeLa membranes); details: recombinant human receptor, [3H]8-OH-DPAT; Ki from IC50 by Cheng & Prusoff; read-out: Binding affinity for the 5-HT1A receptor, Ki
T1 construct: expressed in transfected cells; host or cells: HeLa
T1 sequence (P08908 1-422): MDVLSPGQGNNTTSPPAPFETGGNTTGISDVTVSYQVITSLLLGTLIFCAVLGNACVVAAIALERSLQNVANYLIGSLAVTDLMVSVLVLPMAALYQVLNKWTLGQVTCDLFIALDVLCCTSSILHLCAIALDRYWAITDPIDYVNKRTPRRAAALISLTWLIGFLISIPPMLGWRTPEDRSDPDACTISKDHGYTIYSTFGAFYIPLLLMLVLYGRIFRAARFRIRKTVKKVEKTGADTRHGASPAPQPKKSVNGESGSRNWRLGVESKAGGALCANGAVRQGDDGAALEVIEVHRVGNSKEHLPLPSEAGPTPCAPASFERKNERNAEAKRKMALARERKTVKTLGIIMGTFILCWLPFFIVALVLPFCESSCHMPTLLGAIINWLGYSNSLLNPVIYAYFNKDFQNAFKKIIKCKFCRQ
In short: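 Membranes from HeLa cells stably transfected with human 5-HT1A clone G-21 incubated 30 min at 30° C with 0.2-1 nM [3H]8-OH-DPAT in 50 mM Tris HCl pH 7.4, 2.5 mM MgCl2, 10 μM pargiline; nonspecific binding with 10 μM 5-HT. Filtration assay; IC50 from curve fitting converted to Ki by Cheng-Prusoff.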

Compound | ED (10 min disappearance of contractions) [1] [mg/kg] | ED50 [1] [mg/kg] | BVC after treatment (urinary bladder; 15 min after i.v. 300 μg/kg) [mL] | MP after treatment (urinary bladder; 15 min after i.v. 300 μg/kg) [mmHg] | BVC after treatment (urinary bladder; 15 min after i.v. 1000 μg/kg) [mL] | MP after treatment (urinary bladder; 15 min after i.v. 1000 μg/kg) [mmHg] | change in vivo at 0.3 mg/kg (urinary bladder; read-out: BVC % of change) [%] | change in vivo at 0.3 mg/kg (urinary bladder; read-out: MP % of change) [%] | change in vivo at 1 mg/kg (urinary bladder; read-out: BVC % of change) [%] | change in vivo at 1 mg/kg (urinary bladder; read-out: MP % of change) [%] | Ki [2] [nM]
O=C(C1CCCCC1)N(CCN1CCN(c2cccc3[nH]ccc23)CC1)c1ccccc1OC(F)(F)F [Example 51, 1-[N-cyclohexylcarbonyl-N-(2-trifluoromethoxyphenyl)-2-aminoethyl]-4-(4-indolyl)piperazine] | 0.276 | 0.2 | 0.84 ± 0.14 | 73.7 ± 6.1 | 1.08 ± 0.09 | 67.9 ± 5.6 | 27.7 | -7.9 | 36.5 | -13.3 | 0.24
COc1cc(N)ccc1N1CCN(CCN(C(=O)C2CCCCC2)c2ccccc2OC(F)(F)F)CC1 [Example 56, 1-[N-cyclohexylcarbonyl-N-(2-trifluoromethoxyphenyl)-2-aminoethyl]-4-(4-amino-2-methoxyphenyl)piperazine] | 0.061 | 0.021 |  |  |  |  |  |  |  |  | 2.13
COc1cc(NC(C)=O)ccc1N1CCN(CCN(C(=O)C2CCCCC2)c2ccccc2OC(F)(F)F)CC1 [Example 57, 1-[N-cyclohexylcarbonyl-N-(2-trifluoromethoxyphenyl)-2-aminoethyl]-4-(4-acetylamino-2-methoxyphenyl)piperazine] | 0.254 | 0.252 |  |  |  |  |  |  |  |  | 0.74
COc1cc(N)ccc1N1CCN(CCN(C(=O)C2CCCCC2)c2ccccc2OCC(F)(F)F)CC1 [Example 66] | 0.167 | 0.058 |  |  |  |  |  |  |  |  | 0.76
O=C(C1CCCCC1)N(CCN1CCN(c2cccc3[nH]ccc23)CC1)c1ccccc1OCC(F)(F)F [Example 69, 1-[N-cyclohexylcarbonyl-N-[2-(2,2,2-trifluoroethoxyphenyl)]-2-aminoethyl]-4-(4-indolyl)piperazine] | 0.06 | 0.014 |  |  |  |  |  |  |  |  | 0.32

Source: US6399614B1, “1-(N-phenylaminoalkyl)piperazine derivatives substituted at position 2 of the phenyl ring” (Recordati S.A. Chemical and Pharmaceutical Company, priority 1997, dated 2002)
